According to patent publication US9364523B2 (priority 2014, dated 2016):
Residues, ends and D or L forms follow the SMILES beside them. *: point of attachment. Cbz = O=C(OCc1ccccc1)*

Key:
transfected HEK cells = type: cell-based
transfected COS cells = type: cell-based

CC(C)C[C@@H](C=O)NC(=O)[C@H](CC(C)C)NC(=O)[C@H](CC(C)C)NC(=O)OCc1ccccc1 [MG132] (Cbz-Leu-Leu-Leu-aldehyde)
MTI-PAA levels in the presence of proteasome inhibitor (transfected HEK cells): increased levels of MTI-PAA | MTI-PAA expression in the presence of proteasome inhibitor (transfected COS cells): enhanced
